From patent US20110281852A1 (priority 2010, published 2011)

Legend:
[1] = tested on: GATA-3; assay: Immunoblot, GATA-3 protein in 3T3-L1 cells; assay type: cell-based, mouse; settings: DM + 1, 2, 4, 8 μM, 8 days, p<0.05
Protocol: Immunoblot Analysis: GATA-2 and GATA-3 protein expression were assessed by Western blot. […] The cells were washed twice with PBS, lysed in a lysis buffer (HEPES-Tx-PI buffer: 10 mM HEPES, 5 mM EDTA, 350 mM Sucrose, 1 ug/ml leupeptin, 1 ug/ml pepstatin, 1% Triton-X, 1 mM PMSF, diluted in water), processed with a 25G needle and centrifuged at 10,000 rpm for 5 min. Protein concentration was determined using the […] according to the Pierce Protein Assay Protocol. Total protein (50 μg) was used for GATA-2 and GATA-3 analysis and was separated by electrophoresis using BioRad Electrophoretic System (60 V for 1 hour followed by 90 V for 5 hours). The protein was then transferred to nitrocellulose membranes at 35 V overnight. The membrane was blocked for 1 hour at room temperature in 5% nonfat milk in Tris-buffered saline (TBS), then washed with Tween-20-TBS (TTBS, 0.1% Tween-20) three times (15 min, 5 min, 5 min), followed by incubation with primary antibodies of GATA-2 (dilution 1:500), GATA-3 (dilution 1:500), β-Actin (dilution 1:1000) at room temperature for 2 hours. The membrane was rinsed three times (15 min, 5 min, 5 min), then incubated at room temperature for 1 hour with Horseradish peroxidase-conjugated second antibody (1:10,000). The membrane was then incubated in ECL reagent for 1 minute. Protein was visualized using UVP image analysis system.

[2] = tested on: low density lipoprotein receptor (LDLR); assay: Real-time RT-PCR, LDLR mRNA in 3T3-L1; assay type: cell-based, mouse; settings: 8 days
Text: Realtime RT-PCR: Real-time reverse transcriptase polymerase chain reaction (RT-PCR) analysis was used to measure mRNA expression of genes SREBP-1, PPARγ, C/EBPα, low density lipoprotein receptor (LDLR), Adiponectin, and fatty acid synthase (FAS) under the control of β-actin. Briefly, total RNA was isolated from 3T3-L1 cells following treatment for 8 days with Trizol reagent (Invitrogen, Carlsbad, Calif., USA) according to the manufacturer's instruction. RNA was quantified using absorption of light at 260 nm, and sample purity was checked by OD 260 nm/280 nm. 0.8 μg of total RNA from each sample was used for reverse transcription reaction using the TaqMan Reverse Transcription Reagents (Applied Biosystems, Foster City, Calif., USA) according to the manufacturers' instructions. PCR was done using the SYBR green Master Mix (Applied Biosystems, Foster City, Calif., USA) according to the manufacturers' instructions. The temperature cycling conditions of amplification were as follows: an initial step of denaturation at 95° C. for 10 min, 40 cycles of denaturation at 95° C. for 30 s, annealing at 55° C. for 30 s, and elongation at 72° C. for 30 s. Realtime RT-PCR was performed using Mx3000P Realtime Thermocyclers (Statagene, La Jolla, Calif., USA). The relative mRNA levels of these genes were calculated by 2-delta delta CT method and normalized with control groups.

[3] = tested on: SREBP-1; assay: Immunoblotting, SREBP-1 protein in 3T3-L1; assay type: cell-based, mouse; settings: 8 days
Protocol: Immunoblotting: Protein expression of SREBP-1, PPARγ, and C/EBPα relative to […] was assessed by Western Blot. Total proteins were isolated from 3T3-L1 cells treated with compounds or vehicles for 8 days. The cells were washed twice with PBS, lysed in a HEPES-Tx-PI buffer ([…], 5 mM EDTA, 350 mM Sucrose, 1 μg/ml leupeptin, 1 μg/ml pepstatin, 1% Triton-X, 1 mM PMSF), processed with 25G needles and centrifuged at 12,000 rpm for 5 min. Protein concentration was determined using the Micro BCA Protein Assay Kit (Fisher Scientific, Pittsburgh, Pa., USA) following the manufacturers instructions. 25 μg proteins were loaded and separated by electrophoresis using the BioRad Electrophoretic System (65 V for 7 hour). The proteins were then transferred to nitrocellulose membranes at 40 V overnight. The membrane was blocked for 1 hour at room temperature in 5% nonfat milk in Tris-buffered saline (TBS), then washed with Tween-20-TBS (TTBS, 0.1% Tween-20) three times (15 min, 5 min, 5 min), followed by incubation with primary antibodies SREBP-1 (dilution 1:200), PPARγ (dilution 1:200), C/EBPα (dilution 1:200) (all purchased from Santa Cruz Biotechnology, Santa Cruz, Calif., USA) and […] (dilution 1:1000, Sigma-Aldrich, St. Louis, Mo., USA) at room temperature for 2 hours. […]

[4] = tested on: SERT promoter (5-HTTLPR alleles); assay: DRL (dual luciferase reporter) assay, SERT promoter activity of 5-HTTLPR alleles in RN46A cells; assay type: cell-based; settings: 2 μM evodiamine
Text: The PCR reaction to amplify the 5-HTTLPR alleles for sequencing and creation of reporter constructs contained primers different than those used for the genotyping experiment.
The primer sequences were described previously and are as follows: Forward primer 5′-[…]-3′ (SEQ ID NO:25) and Reverse primer 5′-[…]-3′ (SEQ ID NO:26) (Hu et al., Am J Hum Genet (2006) 78(5):815-826). The PCR products of the six 5-HTTLPR alleles (S, LG, LA, XS, XL-17, and XL-18) were subcloned into the TOPO TA cloning vector pCR2.1-TOPO (Invitrogen) and transformed to One Shot TOP10 competent E. coli cells according to the manufacturer's instructions. In the case of individuals heterozygous for 5-HTTLPR, resulting transformants were screened for the presence of the correct insert using the restriction enzyme EcoR I.
The resulting constructs, created and sequenced, in the pCR2.1-TOPO vector (S, LG, LA, XS, XL-17, and XL-18 alleles) were subcloned to the luciferase reporter vector pGL4.10 [luc2] (Promega) using standard molecular techniques. Additionally, each allele was cloned into pGL4.10 [luc2] in the backwards orientation to ensure that transcriptional effects were the result of consensus promoter sequences. […] The co-transfection with the 5-HTTLPR pGL4.10 constructs (firefly luciferase) and the pRL-SV40 vector (renilla luciferase) to the RN46A raphe-derived cell line using Lipofectamine 2000 (Invitrogen) was described previously. Expression was measured using the Dual-Luciferase Reporter Assay System (Promega) 24 h after transfection with passive lysis buffer.
Relative light units (RLU) for both the firefly and renilla luciferase was measured using a 20/20^n Luminometer (Turner Biosystems, Sunnyvale Calif. 94085) and the ratio between the firefly RLU to renilla RLU in each sample was determined. The values were all normalized to the (S) allele.

[5] = 8 μM berberine + 15 μM clozapine
[6] = 8 μM berberine + 50 μM risperidone

Row | Molecule | GATA-3 protein expression [1] | decrease of LDLR mRNA expression vs clozapine treated group [2, 5] [%] | decrease of LDLR mRNA expression vs risperidone treated group [2, 6] [%] | decrease of SREBP-1 protein expression vs clozapine treated group [3, 5] [%] | decrease of SREBP-1 protein expression vs risperidone treated group [3, 6] [%] | increase of SERT promoter activity vs vehicle ([4]; LA allele) [%] | increase of SERT promoter activity vs vehicle ([4]; LG allele) [%] | increase of SERT promoter activity vs vehicle ([4]; S allele) [%] | increase of SERT promoter activity vs vehicle ([4]; XL17 allele) [%] | increase of SERT promoter activity vs vehicle ([4]; XL18 allele) [%] | increase of SERT promoter activity vs vehicle ([4]; XS allele) [%]
1 | COc1ccc2cc3[n+](cc2c1OC)CCc1cc2c(cc1-3)OCO2.[Cl-] [berberine, Berberine (Chloride Form)] | increase | 82.3 | 90 | 64.6 | 60.4 |  |  |  |  |  | 
2 | evodiamine |  |  |  |  |  | 171.5 | 288.5 | 206.9 | 165.6 | 96.3 | 74.3
